Data as given in publication PMC7986153, “A Functional Chemiluminescent Probe for in Vivo Imaging of Natural Killer Cell Activity Against Tumours” (Angewandte Chemie (International Ed. in English), 2021).
Where a SMILES comes first, the peptide text is derived from it. The star is where a group is joined. AMC = Cc1cc(=O)oc2cc(N*)ccc12

Target: T1, hr‐granzyme B (Homo sapiens, UniProt P10144)
T1 construct: in the absence and presence of active human recombinant (hr)‐granzyme B
Assay: Time-course signal-to-noise ratios after reaction with granzyme B
Format: biochemical
Details: Ac-IEPD-AMC 25 μM, hr-granzyme B 20 nM, aqueous buffer 37 °C, fluorescence 450 nm, over 30 minutes; mean ± SEM, n=6
Protocol: In vitro characterisation assays. Enzymatic assays were run in a 384-well format in a PCR opaque microplate (Thermo Scientific). All experiments were performed at least in triplicate. Dilutions and reactions using human GZM B and human neutrophil elastase were prepared in 50 mM Tris-HCl and 100 mM NaCl (pH 7.4). GZM A assays were performed in 25 mM HEPES, 0.1% CHAPS and 10 mM DTT (pH 7.5). Dilutions and incubations with CASP8 and CASP9 were prepared in 50 mM HEPES, 100 mM NaCl, 0.1% Triton X-100, 10 mM DTT, 1 mM EDTA and 10% glycerol (pH 7.4). Any other tested biomolecules were prepared in PBS. Proteolytic activity was determined by calculating the fold change in chemiluminescence signal (or fluorescence signal in the case of Ac - IEPD-AMC) over background signal provided by the corresponding dilution of the probes with the enzyme using a spectrophotometer (Synergy H1 Hybrid Reader, BioTek) at 37°C.
Unless otherwise stated, probes were utilized at a concentration of 100 μM. Enzyme concentration used: 20 nM (except CASP9, which was used at 200 nM) and all other biomolecules were tested at 100 μM. In the case where an inhibitor was used, the enzyme was pre-incubated for 1 h with the inhibitor (100 µM) before addition of probe 1.
Cell culture. […]

T1 sequence (P10144 21-247): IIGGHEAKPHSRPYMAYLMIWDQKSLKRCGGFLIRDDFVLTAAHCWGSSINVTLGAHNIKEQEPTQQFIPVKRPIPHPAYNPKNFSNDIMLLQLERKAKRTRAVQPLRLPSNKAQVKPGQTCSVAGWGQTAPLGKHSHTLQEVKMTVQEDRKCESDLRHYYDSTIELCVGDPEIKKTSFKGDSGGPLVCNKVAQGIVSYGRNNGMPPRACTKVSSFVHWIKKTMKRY

Signal‐to‐noise (S/N) ratio: under 5
SMILES: CC[C@H](C)[C@H](NC(C)=O)C(=O)N[C@@H](CCC(=O)O)C(=O)N1CCC[C@H]1C(=O)N[C@@H](CC(=O)O)C(=O)Nc1ccc2c(C)cc(=O)oc2c1 [Ac‐IEPD‐AMC] (Ac-IEPD-{AMC})
